Literature values as cited in patent US20200138036A1, “FUMIGANT FORMULATION” (Linde Aktiengesellschaft, priority 2017, published 2020).
Counter-ions that a name gives are not always drawn.

Settings: at 20° C.

SMILES: CCOC=O [Ethyl formate]
- vapour pressure: 25.9 kPa
